Columns and labels:
Type in all cases: in vivo
[1] = test system: transplanted rice plant; assay: Test Example 1: effect on crop, application before weed generation in submerged conditions (symbol a); settings: application herbicide amount 320 g/ha
Outline: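 Rice at 2.5 leaf stage transplanted into submerged soil (4 cm depth) sown with three weed species; herbicide applied before weed emergence.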

[2] = test system: Alopecurus myosuroides; assay: Test Example 4: herbicidal effect by soil treatment (symbol J); settings: for Herbicidal effect grade, J: Alopecurus myosuroides: application herbicide amount 320 g/ha
Outline: (§1)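 Seeds were sown in sterilized diluvial soil, covered with about 1.5 cm of soil, and the soil surface was sprayed with a water-diluted emulsion of the compound at a predetermined rate. Plants grew in a greenhouse at 25° C. to 30° C.; effects were scored visually 3 weeks after application.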

[3] = test system: Apera spica-venti; assay: Test Example 4: herbicidal effect by soil treatment (symbol L); settings: for Herbicidal effect grade, L: Apera spica-venti: application herbicide amount 320 g/ha
Outline: as §1

[4] = test system: Amaranthus retroflexus; assay: Test Example 4: herbicidal effect by soil treatment (symbol N); settings: for Herbicidal effect grade, N: Amaranthus retroflexus: application herbicide amount 320 g/ha
Outline: as §1

[5] = test system: Stellaria media; assay: Test Example 4: herbicidal effect by soil treatment (symbol P); settings: 320 g/ha
Outline: as §1

[6] = test system: Veronica persica; assay: Test Example 4: herbicidal effect by soil treatment (symbol R); settings: for Herbicidal effect grade, R: Veronica persica: application herbicide amount 320 g/ha
Outline: as §1

[7] = test system: soybean; assay: Test Example 4: effect on crop by soil treatment (symbol d); settings: for Effect on crop grade, d: soybean: application herbicide amount 320 g/ha
Outline: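 Plants grew in a 25° C. to 30° C. greenhouse after spot-sowing of seeds, including beet, rapeseed, wheat and rice, into sterilized diluvial soil under roughly 1.5 cm of cover soil.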

[8] = test system: Setaria viridis; assay: Test Example 5: herbicidal effect by foliage application, plastic box (symbol G); settings: 320 g/ha, 3 weeks after application
Outline: (§2)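 Emulsion formulation, diluted with water to the intended rate, was applied uniformly to leaves by small sprayer. Recipients were 14-day greenhouse-grown seedlings (25° C. to 30° C.). Assessment followed at 3 weeks.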

[9] = test system: Echinochloa crus-galli var. crus-galli; assay: Test Example 5: herbicidal effect by foliage application, plastic box (symbol H); settings: 320 g/ha, 3 weeks after application
Outline: as §2

[10] = test system: Apera spica-venti; assay: Test Example 5: herbicidal effect by foliage application, plastic box (symbol L); settings: 320 g/ha, 3 weeks after application
Outline: as §2

[11] = test system: Abutilon theophrasti; assay: Test Example 5: herbicidal effect by foliage application, plastic box (symbol M); settings: 320 g/ha, 3 weeks after application
Outline: as §2

[12] = test system: soybean; assay: Test Example 5: effect on crop by foliage application, plastic box (symbol d); settings: 320 g/ha, 3 weeks after application
Outline: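 Crop seed is sown alongside grass and broadleaf weed species in spots in sterilized diluvial soil, then covered to a depth of about 1.5 cm. Plants grow in a greenhouse kept at 25° C. to 30° C.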

[13] = test system: Echinochloa crus-galli var. crus-galli; assay: Test Example 3: herbicidal effect by foliage application, Wagner pot (symbol H); settings: application herbicide amount 320 g/ha, Table 24
Outline: (§3)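 Alluvial soil was flooded to a depth of 0.1–0.5 cm, seeded with the weeds and rice, and kept in a greenhouse at 25–30 °C. After 14 days of growth, the foliage received a small-sprayer application of emulsion diluted to the intended rate; injury was rated at 3 weeks.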

[14] = test system: Leptochloa chinensis; assay: Test Example 3: herbicidal effect by foliage application, Wagner pot (symbol D); settings: application herbicide amount 320 g/ha, Table 24
Outline: as §3

[15] = test system: Cyperus difformis; assay: Test Example 3: herbicidal effect by foliage application, Wagner pot (symbol E); settings: application herbicide amount 320 g/ha, Table 24
Outline: as §3

Row | SMILES | a (transplanted rice plant) effect on crop grade [1] | H (Echinochloa crus-galli var. crus-galli) herbicidal effect grade [13] | D (Leptochloa chinensis) herbicidal effect grade [14] | E herbicidal effect grade [15] | Herbicidal effect grade, J: Alopecurus myosuroides [2] | Herbicidal effect grade, L: Apera spica-venti [3] | Herbicidal effect grade, N: Amaranthus retroflexus [4] | Herbicidal effect grade, R: Veronica persica [6] | Effect on crop grade, d: soybean [7] | G: Setaria viridis, herbicidal effect grade [8] | H: Echinochloa crus-galli var. crus-galli, herbicidal effect grade [9] | L: Apera spica-venti, herbicidal effect grade [10] | M: Abutilon theophrasti, herbicidal effect grade [11] | d: soybean, effect on crop grade [12] | other results
1 | CC(CC1CC(O)=C(c2c(C)cc(C)cc2C)C1=O)=NOCc1ccccc1Cl (stereo not shown) [1-113] |  |  |  |  |  |  |  |  |  |  |  |  |  |  | Effect grade on crop, a: transplanted rice plant [1]: 3 (Herbicidal ratio of 40% or higher and lower than 70%); J: Alopecurus myosuroides, herbicidal effect grade ([2]; 320 g/ha): 3 (Herbicidal ratio of 40% or higher and lower than 70%); L: Apera spica-venti, herbicidal effect grade ([3]; 320 g/ha): 5 (Herbicidal ratio of 90% or more (almost completely withered)); N: Amaranthus retroflexus, herbicidal effect grade ([4]; 320 g/ha): 0 (Herbicidal ratio of 5% or lower (almost no effect)); P: Stellaria media, herbicidal effect grade [5]: 0 (Herbicidal ratio of 5% or lower (almost no effect)); R: Veronica persica, herbicidal effect grade ([6]; 320 g/ha): 0 (Herbicidal ratio of 5% or lower (almost no effect)); d: soybean, effect grade on crop ([7]; 320 g/ha): 0 (Herbicidal ratio of 5% or lower (almost no effect)); G: Setaria viridis, herbicidal effect (criteria 0-5) [8]: 4 (Herbicidal ratio of 70% or higher and lower than 90%); H: Echinochloa crus-galli var. crus-galli, herbicidal effect (criteria 0-5) [9]: 4 (Herbicidal ratio of 70% or higher and lower than 90%); L: Apera spica-venti, herbicidal effect (criteria 0-5) [10]: 5 (Herbicidal ratio of 90% or more (almost completely withered)); M: Abutilon theophrasti, herbicidal effect (criteria 0-5) [11]: 1 (Herbicidal ratio of 5% or higher and lower than 20%); d: soybean, effect on crop (criteria 0-5) [12]: 0 (Herbicidal ratio of 5% or lower (almost no effect))
2 | COCCON=C(C)CC1CC(O)=C(c2c(C)cc(Br)cc2C)C1=O (stereo not shown) [9-017] | 4 (Herbicidal ratio of 70% or higher and lower than 90%) | 5 (Herbicidal ratio of 90% or more (almost completely withered)) | 5 (Herbicidal ratio of 90% or more (almost completely withered)) | 3 (Herbicidal ratio of 40% or higher and lower than 70%) | 0 (Herbicidal ratio of 5% or lower (almost no effect)) | 0 (Herbicidal ratio of 5% or lower (almost no effect)) | 0 (Herbicidal ratio of 5% or lower (almost no effect)) | 0 (Herbicidal ratio of 5% or lower (almost no effect)) | 0 (Herbicidal ratio of 5% or lower (almost no effect)) | 5 (Herbicidal ratio of 90% or more (almost completely withered)) | 5 (Herbicidal ratio of 90% or more (almost completely withered)) | 3 (Herbicidal ratio of 40% or higher and lower than 70%) | 0 (Herbicidal ratio of 5% or lower (almost no effect)) | 0 (Herbicidal ratio of 5% or lower (almost no effect)) | 
3 | COCCON=C(CC1CC(O)=C(c2c(C)cc(-n3cc(Cl)cn3)cc2C)C1=O)C1CC1 (stereo not shown) [9-020] | 5 (Herbicidal ratio of 90% or more (almost completely withered)) | 5 (Herbicidal ratio of 90% or more (almost completely withered)) | 5 (Herbicidal ratio of 90% or more (almost completely withered)) | 5 (Herbicidal ratio of 90% or more (almost completely withered)) | 3 (Herbicidal ratio of 40% or higher and lower than 70%) | 4 (Herbicidal ratio of 70% or higher and lower than 90%) | 0 (Herbicidal ratio of 5% or lower (almost no effect)) | 0 (Herbicidal ratio of 5% or lower (almost no effect)) | 0 (Herbicidal ratio of 5% or lower (almost no effect)) | 5 (Herbicidal ratio of 90% or more (almost completely withered)) | 5 (Herbicidal ratio of 90% or more (almost completely withered)) | 4 (Herbicidal ratio of 70% or higher and lower than 90%) | 4 (Herbicidal ratio of 70% or higher and lower than 90%) | 1 (Herbicidal ratio of 5% or higher and lower than 20%) | 

— patent publication US11000033B2, “Ketone or oxime compound, and herbicide” (NISSAN CHEMICAL CORPORATION, priority 2014, dated 2021)
